This passage reports Ki results from BindingDB's records for doi:10.1016/j.ejmech.2016.01.043 (Yonsei University, 2016).

The target in this experiment is 5-hydroxytryptamine receptor 7 (Homo sapiens, UniProt P34969). Put plainly: Displacement of [3H]LSD from 5-HT7 receptor (unknown origin) expressed in CHO-K1 cells by liquid scintillation counting method.
Sequence of 5-hydroxytryptamine receptor 7 (P34969 whole entry): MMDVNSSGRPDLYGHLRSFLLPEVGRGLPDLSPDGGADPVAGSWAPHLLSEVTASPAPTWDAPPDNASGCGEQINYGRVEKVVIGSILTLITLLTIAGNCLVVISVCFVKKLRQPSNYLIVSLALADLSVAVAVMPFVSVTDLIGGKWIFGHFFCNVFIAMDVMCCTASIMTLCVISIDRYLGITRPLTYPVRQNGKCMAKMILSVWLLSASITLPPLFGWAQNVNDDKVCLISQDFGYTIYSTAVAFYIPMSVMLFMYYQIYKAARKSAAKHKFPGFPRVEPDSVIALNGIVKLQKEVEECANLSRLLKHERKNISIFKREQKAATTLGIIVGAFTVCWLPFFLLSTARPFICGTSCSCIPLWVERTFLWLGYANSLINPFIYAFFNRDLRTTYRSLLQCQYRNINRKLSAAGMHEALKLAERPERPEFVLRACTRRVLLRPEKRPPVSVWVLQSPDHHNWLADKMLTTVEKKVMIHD

`CC1CCCN(CCCCC(=O)n2c3ccccc3c3ccccc32)C1` (stereo unspecified): the inhibitory constant (Ki) came to 794 nM.
